One assay concerns Nalm-6 leukemia cells. The assay can be described thus: Inhibition of Nalm-6 leukemia cell growth (CellTiter-Glo). Type of assay: cell-based. Particulars: 72 hours treatment; for IC50: Homo sapiens, NALM-6. For orientation: ATP-based viability assays read luminescence as a measure of living cells.
The target of assay [1] is MEF2D and HDAC4 protein interactions (Homo sapiens (Human), UniProt Q14814). The assay can be described thus: Mammalian two-hybrid assay (GAL4-MEF2D / HDAC4-VP16 luciferase reporter). Type of assay: cell-based. Particulars: for Relative Activity, I / IC50 / Inhibition of MEF2D/HDAC4 interactions (in words): HeLa cells; for Relative Activity, I: test compound 10 μM overnight, ratio X/Y versus DMSO control, expressed in percentile, low = strong inhibition; for IC50: concentration when X/Y equals 50; for Group: class by relative activity I at 10 μM; for Inhibition of MEF2D/HDAC4 interactions (in words): two-hybrid assay. From the text:
Detection of MEF2D and HDAC4 interactions. In this mammalian two-hybrid assay, HDAC4 and MEF2D proteins were used as representative members of their respective protein families because the protein-protein interactions involved in the recruitment of class IIa HDACs by MEF2 were highly conserved. Two separate DNA constructs were made with MEF2D fused with the GAL4 DNA binding domain (GAL4-MEF2D) and with the MEF2-binding motif of HDAC4 (AA 155-220) fused with the viral transactivator VP-16 (HDAC4-VP16) (FIG. 1). Human epithelial carcinoma cells (HeLa) were co-transfected with the two DNA constructs (GAL4-MEF2D and HDAC4-VP16) and a reporter plasmid (Gal4Luc). […] MEF2D and HDAC4 protein interactions were detected as a result of the GAL4-MEF2D and HDAC4-VP16 protein complex binding a DNA promoter on the reporter plasmid (Gal4Luc) and driving cellular expression of a luciferase gene (FIG. 1). The measured luciferase protein signal was proportional to the amount of MEF2D and HDAC4 protein interactions occurring with the cell.
The relatively stronger signal from the GAL4VP16 positive control construct was probably due to the fact that the activation domain of VP16 was covalently linked to GAL4, whereas in the mammalian two-hybrid assay it was recruited by protein-protein interactions between HDAC4 and MEF2 (FIG. 2). This assay permitted the detection of the interactions between HDAC4 and MEF2D with minimal interference from endogenous factors. The HDAC4 fragment lacked the catalytic domain so that the deacetylase activity was excluded from the assay.
Detection of inhibition of MEF2D and HDAC4 interactions. Next, the assay was used to test whether the compounds could disrupt the interactions between MEF2D and HDAC4. After co-expressing the GAL4-MEF2D and HDAC4-VP16 DNA constructs and reporter plasmid, the HeLa cells were treated with a test compound (10 μM) overnight. Cells transfected with the positive control GAL4VP16 fusion construct and reporter plasmid were also treated with the test compound (10 μM) overnight. As another control, DMSO was added (but kept below 0.2% V/V) to cells transfected with the positive GAL4VP16 fusion construct or the GAL4-MEF2D and HDAC4-VP16 DNA constructs. A luciferase assay was performed as described above according to the manufacturer's protocol (Promega). The luciferase response was normalized against the Renilla Luciferase as an internal control.
The relative activity and IC50 calculations. […] The relative activity, I, was the ratio of former to later, i.e. X/Y, expressed in percentile. […] The IC50 was the concentration of the compounds when X/Y equals 50.

Chain of MEF2D and HDAC4 protein interactions (Q14814 whole entry, species assumed, the tested form may be a part): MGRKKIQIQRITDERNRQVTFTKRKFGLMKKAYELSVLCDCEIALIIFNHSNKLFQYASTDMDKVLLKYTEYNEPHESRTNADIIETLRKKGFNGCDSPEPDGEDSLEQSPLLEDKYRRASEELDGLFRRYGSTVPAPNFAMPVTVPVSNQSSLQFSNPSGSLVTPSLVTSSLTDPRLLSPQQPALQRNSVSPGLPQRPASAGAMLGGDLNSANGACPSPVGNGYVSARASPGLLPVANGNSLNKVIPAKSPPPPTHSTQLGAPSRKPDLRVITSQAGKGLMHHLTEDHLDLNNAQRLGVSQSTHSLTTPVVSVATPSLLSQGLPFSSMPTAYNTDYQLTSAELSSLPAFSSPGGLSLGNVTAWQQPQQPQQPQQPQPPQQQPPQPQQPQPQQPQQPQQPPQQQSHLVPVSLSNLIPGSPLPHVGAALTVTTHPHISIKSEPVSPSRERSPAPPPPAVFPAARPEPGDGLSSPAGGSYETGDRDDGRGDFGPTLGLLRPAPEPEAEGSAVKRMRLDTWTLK
Protocol for Nalm-6 leukemia cells: Treatment of cells. Nalm-6 leukemia cells were grown to the logarithmic growth phase and seeded into 24-well plates. Plated cells were incubated at 37° C. in a 5% CO2 humidified incubator for 24 hours and treated with various concentrations of compounds. Treated cells were further incubated for 72 hours and then were examined for cell proliferation. Cell proliferation was determined using the CellTiter-Glo Luminescence Cell Viability assay (Promega Corporation, Madison, Wis.) according to the manufacturer's protocol. The calculated inhibition rate was determined with the following formula: Inhibition rate (%)=(1−Luminescence of experimental group/Luminescence of control group)×100. The 1050 was the calculated concentration of a compound needed to inhibit half of the maximum cell growth (equivalent to cell growth in control group) based on the corresponding dose-response curve under the described experimental conditions.

For `Nc1ccccc1NC(=O)CCCCCC(=O)Nc1ccc(O)cc1` [CC3, N^1-(2-aminophenyl)-N^7-(4-hydroxyphenyl)heptanediamide], the midpoint of inhibition with Nalm-6 leukemia cells, the IC50, lay at 2610 nM. For the same molecule, in assay [1], the “Relative Activity, I” value amounted to 5.4; the IC50 (in general, the concentration that gives 50% inhibition) worked out at 100 nM; the Group entry is on record as “A (A (I < 22 included))”.

`Nc1ccccc1NC(=O)CCCCCC(=O)Nc1ccccc1Br` [CC6, N^1-(2-aminophenyl)-N^7-(2-bromophenyl)heptanediamide]: in the assay with Nalm-6 leukemia cells, the “Nalm-6 leukemia cell growth inhibition (in words)” value is given as “strong growth inhibition” and the IC50 worked out at 2050 nM. Moreover, in assay [1], the “Relative Activity, I” value turned out to be 62.6; the Group result is “C (C (50 < I < 100 included))”; the “Inhibition of MEF2D/HDAC4 interactions (in words)” value was “weaker inhibition”.

The molecule `Nc1ccccc1NC(=O)CCCCCNC(=O)c1ccc(Br)cc1` [CC5, N-(6-((2-aminophenyl)amino)-6-oxohexyl)-4-bromobenzamide] gave a half-maximal inhibitory concentration (IC50) in the assay on Nalm-6 leukemia cells of 1380 nM. For the same molecule, in assay [1], the “Relative Activity, I” value was 3.6; the IC50 stood at 70 nM; the Group result is “A (A (I < 22 included))”.

For the molecule `Nc1ccccc1NC(=O)CCCCCC(=O)NCc1cccnc1` [CC1, N^1-(2-aminophenyl)-N^7-(pyridin-3-ylmethyl)heptanediamide], in the assay with Nalm-6 leukemia cells, the “Nalm-6 leukemia cell growth inhibition (in words)” value is “mild inhibitory effect” and the IC50 was over 10000 nM. In assay [1], the “Relative Activity, I” value was determined as 79.2; the Group entry is “C (C (50 < I < 100 included))”; the “Inhibition of MEF2D/HDAC4 interactions (in words)” value is recorded as “mild inhibitory effect”.

`Nc1ccccc1NC(=O)CCCCCC(=O)Nc1cccc(O)c1` [CC2, N^1-(2-aminophenyl)-N^7-(3-hydroxyphenyl)heptanediamide] gave an IC50 with Nalm-6 leukemia cells of 1460 nM. Besides, in assay [1], the “Relative Activity, I” value came out at 4.7; 90 nM corresponded to half-maximal inhibition (IC50); the Group entry was “A (A (I < 22 included))”.

Take `Nc1ccncc1NC(=O)CCCCCC(=O)Nc1cccc(Br)c1` [CC4, N^1-(4-aminopyridin-3-yl)-N^7-(3-bromophenyl)heptanediamide]: in the assay on Nalm-6 leukemia cells, the “Nalm-6 leukemia cell growth inhibition (in words)” value is given as “mild inhibitory effect” and the IC50 was over 10000 nM. Moreover, in assay [1], the “Relative Activity, I” value is listed as 79.5; the Group entry is “C (C (50 < I < 100 included))”; the “Inhibition of MEF2D/HDAC4 interactions (in words)” value was “mild inhibitory effect”.

Take `Nc1ccccc1NC(=O)CCCCCC(=O)Nc1cncc(Br)c1` [CC7, N^1-(2-aminophenyl)-N^7-(5-bromopyridin-3-yl)heptanediamide]: in the assay with Nalm-6 leukemia cells, the IC50 is 1360 nM. Also, in assay [1], the “Relative Activity, I” value turned out to be 5.7; the IC50 is 110 nM; the Group entry is recorded as “A (A (I < 22 included))”.
